Results taken from patent publication US9943504B2, “Arginine methyltransferase inhibitors and uses thereof” (Epizyme, Inc., priority 2013, dated 2018).

Target: T1, human PRMT8 (Homo sapiens, UniProt Q9NR22)
T1 construct: Full-length human PRMT8 (NM_019854.4) isoform 1 transcript clone; made in house; host or cells: E. coli BL21(DE3) Gold
Assay: PRMT8 Biochemical Assay
Conditions: biochemical evaluation, peptide substrate
From the text: S-adenosylmethionine (SAM), S-adenosylhomocysteine (SAH), bicine, Tween20, dimethylsulfoxide (DMSO), bovine skin gelatin (BSG), isopropyl-β-D-thiogalactopyranoside (IPTG), and Tris(2-carboxyethyl)phosphine hydrochloride solution (TCEP) were purchased from Sigma-Aldrich at the highest level of purity possible. ^3H-SAM was purchase from American Radiolabeled Chemicals with a specific activity of 80 Ci/mmol. 384-well streptavidin Flashplates were purchased from PerkinElmer.
Peptide representative of human histone H4 residues 31-45 was synthesized with an N-terminal linker-affinity tag motif and a C-terminal amide cap by 21st Century Biochemicals. The peptide was purified by high-performance liquid chromatography (HPLC) to greater than 95% purity and confirmed by liquid chromatography mass spectrometry (LC-MS). The sequence was Biot-Ahx-[…]-amide (SEQ ID NO.: 8).
The resulting construct encodes an N-terminal GST tag and a thrombin cleavage sequence ([…] […]
The assays were all performed in a buffer consisting of 20 mM Bicine (pH=7.6), 1 mM TCEP, 0.005% BSG, and 0.002% Tween 20, prepared on the day of use. […] The plates were then read in a PerkinElmer TopCount plate reader to measure the quantity of ^3H-labeled peptide bound to the Flashplate surface, measured as disintegrations per minute (dpm) or alternatively, referred to as counts per minute (cpm). […]

T1 sequence (Q9NR22 whole entry, canonical isoform): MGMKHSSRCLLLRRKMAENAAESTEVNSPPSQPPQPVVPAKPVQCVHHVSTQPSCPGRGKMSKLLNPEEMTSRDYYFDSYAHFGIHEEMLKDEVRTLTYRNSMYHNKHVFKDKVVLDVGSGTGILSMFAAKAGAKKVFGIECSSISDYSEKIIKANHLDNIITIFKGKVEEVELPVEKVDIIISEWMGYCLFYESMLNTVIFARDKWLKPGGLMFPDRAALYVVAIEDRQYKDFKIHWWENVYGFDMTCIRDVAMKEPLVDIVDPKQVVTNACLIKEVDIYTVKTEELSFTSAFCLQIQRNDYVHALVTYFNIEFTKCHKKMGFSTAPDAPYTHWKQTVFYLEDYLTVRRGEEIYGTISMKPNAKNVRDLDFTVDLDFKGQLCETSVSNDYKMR

`CN(CCN)Cc1n[nH]c2cccc(OCc3ccccc3)c12` [Compound 1] gave an IC50 of 101 to 1000 nM.
